Patent US7148352B2, “Method of inhibiting neurotrophin-receptor binding” (Queen's University at Kingston, priority 1999, dated 2006)
Values joined by “and” are separate entries in the source; they are usually repeats but may differ in a detail not shown here. Equal values may be shown once.

Assays:
[1] = system: T1, TrkA and p75^NTR (PC12 cells); test: 125I-NGF receptor binding to PC12 cells in the presence of competitor; set-up: species or system rat; details: compound 50 μM; 125I-NGF 1 nM; 2 h at 4° C.; receptor binding as percentage of binding in absence of competitor
T1 construct: PC12 cells (rat pheochromocytoma cells expressing TrkA and p75^NTR; obtained from ATCC); host or cells: PC12 rat pheochromocytoma cells (intact, in suspension)
Experimental: (§1) The radio-iodination and receptor binding of NGF (Sutter et al., 1979) was performed with modifications (Ross et al., 1997) as follows: Evaluation of the ability of NCP compounds to inhibit TrkA and p75^NTR binding was determined by the binding of ^125I-NGF to PC12 cells (rat pheochromocytoma cells expressing TrkA and p75^NTR; obtained from ATCC) and PC12^nnr5 (rat pheochromocytoma cells expressing p75^NTR only; obtained from Dr. L. Greene, Columbia University, NY). The p75^NTR is in a low affinity state and a high affinity state, respectively, in these cell types (Ross et al., 1998). PC12 and PC12^nnr5 cells were grown in RPMI (Sigma) with 10% heat inactivated donor horse serum and 5% fetal calf serum. Cells were harvested by replacing the medium with calcium, magnesium-free balanced salt solution (Gey's solution) and incubating at 37° C. for 15 minutes. Cells were pelleted by centrifugation and suspended in HKR buffer (10 mM Hepes [pH 7.35] containing 125 mM NaCl, 4.8 mM KCl, 1.3 mM CaCl2, 1.2 mM MgSO4, 1.2 mM KH2PO4, 1 g/L glucose and 1 g/L BSA) at a cell concentration of 2×10^6/mL and kept at 4° C. Triplicate tubes were set up for total binding, non-specific binding and binding in the presence of candidate competitor molecule (i.e., a tube for each data point). Each tube contained ^125I-NGF (at 1 nM), 400,000 cells (for a final cell concentration of 10^6/mL) and NGF (50 nM, to define non-specific binding), as required. The tubes were incubated for 2 h at 4° C. and specific binding evaluated by measuring specifically bound DPM (Ross et al., 1997). Data were analysed and the results expressed as receptor binding observed in the presence of competitor (e.g. NCP compounds) as a percentage of receptor binding in the absence of a competitor.

[2] = molecular target: T2, TrkA and p75^NTR (PC12 cells) (Mus musculus, UniProt P01139); test: as above; set-up: species or system rat; details: compound 50 μM; 125I-NGF 1 nM; 2 h at 4° C.; average of three values
T2 construct: PC12 cells (rat pheochromocytoma cells expressing TrkA and p75^NTR; obtained from ATCC); host or cells: PC12 rat pheochromocytoma cells (intact, in suspension)
Experimental: as §1

[3] = system: p75^NTR (PC12^nnr5 cells, expressing p75^NTR only); test: 125I-NGF receptor binding to PC12^nnr5 cells in the presence of competitor; set-up: species or system rat; details: compound 50 μM, 125I-NGF 1 nM, 2 h at 4° C.; for nnr5 % of Max, Avg: average of three values; for nnr5 % of Max (individual determinations): receptor binding as percentage of binding in absence of competitor
Experimental: as §1

T1 sequence (P01139 122-241): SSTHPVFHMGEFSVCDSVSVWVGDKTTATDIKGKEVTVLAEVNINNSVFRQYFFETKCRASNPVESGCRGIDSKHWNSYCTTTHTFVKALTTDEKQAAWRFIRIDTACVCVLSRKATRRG
T2 sequence (P01139 122-241): as above

| Compound | PC12 % of Max (individual determinations) [1] | PC12 % of Max, Avg [2] | nnr5 % of Max, Avg [3] | nnr5 % of Max (individual determinations) [3] | melting point |
| --- | --- | --- | --- | --- | --- |
| O=C(O)CN1C(=O)c2ccc([N+](=O)[O-])cc2C1=O [Compound 140, 4-nitro-N-(1-carboxymethyl)phthalimide] | 100 % of Max and 126 % of Max and 108 % of Max | = 111 % of Max | = 99 % of Max | 89 % of Max and 108 % of Max and 100 % of Max |  |
| O=C(O)c1cccc(N2C(=O)c3cccc([N+](=O)[O-])c3C2=O)c1 [Compound 126, 3-nitro-N-(m-carboxyphenyl)phthalimide] | 90 % of Max and 69 % of Max and 72 % of Max | = 77 % of Max | = 52 % of Max | 34 % of Max and 54 % of Max and 69 % of Max |  |
| O=C(O)c1cccc(N2C(=O)c3cccc4cc([N+](=O)[O-])cc(c34)C2=O)c1 [Compound 206, 3-nitro-N-(m-carboxyphenyl)-1,8-naphthalimide] | 25 % of Max and 29 % of Max and 35 % of Max | = 30 % of Max | = 23 % of Max | 20 % of Max and 17 % of Max and 33 % of Max |  |
| O=C(O)CCN1C(=O)c2ccc([N+](=O)[O-])cc2C1=O [Compound 141, 4-nitro-N-(2-carboxyethyl)phthalimide] | 74 % of Max and 108 % of Max and 87 % of Max | = 90 % of Max | = 96 % of Max | 98 % of Max and 114 % of Max and 77 % of Max |  |
| O=C(O)c1ccccc1N1C(=O)c2cccc([N+](=O)[O-])c2C1=O [Compound 127, 3-nitro-N-(o-carboxyphenyl)phthalimide] | 140 % of Max and 101 % of Max and 114 % of Max | = 118 % of Max | = 112 % of Max | 136 % of Max and 129 % of Max and 71 % of Max |  |
| O=C(O)c1ccc(N2C(=O)c3ccc(C(=O)O)cc3C2=O)cc1 [Compound 105, 4-carboxy-N-(p-carboxyphenyl)phthalimide] | 29 % of Max and 38 % of Max and 40 % of Max | = 36 % of Max | = 34 % of Max | 31 % of Max and 17 % of Max and 55 % of Max |  |
| O=C(O)c1ccc(N2C(=O)c3cccc4cc([N+](=O)[O-])cc(c34)C2=O)cc1 [Compound 205, 3-nitro-N-(p-carboxyphenyl)-1,8-naphthalimide] | 16 % of Max and 19 % of Max and 15 % of Max | = 17 % of Max | = 9 % of Max | 0 % of Max and 11 % of Max and 15 % of Max |  |
| O=C(O)c1ccccc1N1C(=O)c2cccc3cc([N+](=O)[O-])cc(c23)C1=O [Compound 207, 3-nitro-N-(o-carboxyphenyl)-1,8-naphthalimide] | 60 % of Max and 34 % of Max and 69 % of Max | = 54 % of Max | = 58 % of Max | 64 % of Max and 52 % of Max and 59 % of Max |  |
| O=C(O)c1cccc(N2C(=O)c3ccc([N+](=O)[O-])cc3C2=O)c1 [Compound 146, 4-nitro-N-(m-carboxyphenyl)phthalimide] | 52 % of Max (2×) and 71 % of Max | = 58 % of Max | = 44 % of Max | 48 % of Max and 43 % of Max and 42 % of Max | 306 to 308 °C |
| O=C(O)CCN1C(=O)c2ccc(C(=O)O)cc2C1=O [Compound 101, 4-carboxy-N-(2-carboxyethyl)phthalimide] | 89 % of Max and 94 % of Max and 139 % of Max | = 107 % of Max | = 81 % of Max | 89 % of Max and 91 % of Max and 64 % of Max |  |
| O=C(O)CCCCN1C(=O)c2cccc([N+](=O)[O-])c2C1=O [Compound 123, 3-nitro-N-(4-carboxybutyl)phthalimide] | 118 % of Max and 75 % of Max and 98 % of Max | = 97 % of Max | = 150 % of Max | 172 % of Max and 161 % of Max and 117 % of Max |  |
| O=C(O)CCN1C(=O)c2cccc([N+](=O)[O-])c2C1=O [Compound 121, 3-nitro-N-(2-carboxyethyl)phthalimide] | 121 % of Max and 92 % of Max and 103 % of Max | = 103 % of Max | = 165 % of Max | 204 % of Max and 188 % of Max and 103 % of Max |  |
| O=C(O)c1ccc(CN2C(=O)c3ccc(C(=O)O)cc3C2=O)cc1 [Compound 108, 4-carboxy-N-(p-carboxyphenylmethyl)phthalimide] | 90 % of Max and 55 % of Max and 75 % of Max | = 73 % of Max | = 93 % of Max | 135 % of Max and 77 % of Max and 66 % of Max |  |
| O=C(O)CCCN1C(=O)c2cccc([N+](=O)[O-])c2C1=O [Compound 122, 3-nitro-N-(3-carboxypropyl)phthalimide] | 106 % of Max and 88 % of Max and 98 % of Max | = 97 % of Max | = 163 % of Max | 232 % of Max and 152 % of Max and 104 % of Max |  |
